The target in the experiment is Pol theta (1-899) (Homo sapiens (Human), UniProt O75417). As to the kind of experiment: Pol theta ATPase activity, NADH oxidation-coupled enzymatic assay. In kind it is biochemical. Particulars: Pol theta (1-899) 10 nM, ATP, dT50 ssDNA, absorbance 340 nm, 10-point dilution series; read-out: ATPase NADH coupling:Standard Screening:hPolQ IC50. The method in brief:
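Pol theta (1-899), 10 nM, preincubated 15 min at RT with 10-point compound series in Tris pH 7.80/KCl/MgCl2 buffer, then given 100 μM ATP plus 300 nM dT50 ssDNA with PK/LDH-coupled NADH oxidation. A340 followed for 30 min; rate slopes fitted with a four-parameter model for IC50.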

By pIC50 is commonly meant the IC50 on a negative log10 scale, so that one unit is a factor of ten.

Each structure is given as a SMILES string. pIC50: −log10 of the molar value. Where only a bound is given, the exact number is not on record here.

Pol theta (1-899), sequence (O75417 1-899): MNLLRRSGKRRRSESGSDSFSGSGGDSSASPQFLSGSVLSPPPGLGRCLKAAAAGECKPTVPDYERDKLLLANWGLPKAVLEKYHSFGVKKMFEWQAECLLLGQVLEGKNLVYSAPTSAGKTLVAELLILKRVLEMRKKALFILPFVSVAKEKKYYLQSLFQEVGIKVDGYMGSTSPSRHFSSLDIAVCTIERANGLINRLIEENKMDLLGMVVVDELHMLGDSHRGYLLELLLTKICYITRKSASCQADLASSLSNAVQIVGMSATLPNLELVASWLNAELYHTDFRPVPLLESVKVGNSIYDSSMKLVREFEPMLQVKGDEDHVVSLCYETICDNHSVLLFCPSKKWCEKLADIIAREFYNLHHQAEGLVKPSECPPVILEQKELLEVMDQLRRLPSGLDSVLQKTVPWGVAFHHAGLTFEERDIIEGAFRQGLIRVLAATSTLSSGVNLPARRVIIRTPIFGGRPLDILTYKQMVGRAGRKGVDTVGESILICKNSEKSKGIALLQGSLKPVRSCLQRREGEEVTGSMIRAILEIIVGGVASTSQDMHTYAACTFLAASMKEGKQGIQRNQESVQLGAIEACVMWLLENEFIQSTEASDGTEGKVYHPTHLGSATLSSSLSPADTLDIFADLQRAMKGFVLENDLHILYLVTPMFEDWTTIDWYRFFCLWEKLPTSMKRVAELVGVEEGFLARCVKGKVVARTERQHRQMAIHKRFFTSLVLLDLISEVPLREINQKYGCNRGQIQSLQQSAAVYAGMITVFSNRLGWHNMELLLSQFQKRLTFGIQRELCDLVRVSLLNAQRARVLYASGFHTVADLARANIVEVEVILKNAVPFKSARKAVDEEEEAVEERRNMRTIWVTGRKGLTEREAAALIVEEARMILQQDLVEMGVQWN

On to `COc1cccc(F)c1-c1cc(C)ncc1C(=O)Nc1nnc(OCc2ccc(C3(C#N)CC3)cn2)s1` [Example 217, N-(5-((5-(1-cyanocyclopropyl)pyridin-2-yl)methoxy)-1,3,4-thiadiazol-2-yl)-4-(2-fluoro-6-methoxyphenyl)-6-methylnicotinamide], for which the pIC50 is at least 6.70.

For the compound `Cc1cc(-c2ccccc2OC(F)F)c(C(=O)Nc2nnc(OCc3ccc(C4(C#N)CC4)cn3)s2)cn1` [Example 218, N-(5-[[5-(1-cyanocyclopropyl)pyridin-2-yl]methoxy]-1,3,4-thiadiazol-2-yl)-4-[2-(difluoromethoxy)phenyl]-6-methylpyridine-3-carboxamide], the pIC50 was at least 6.70.

Take `COc1ccccc1-c1cc(C)ncc1C(=O)Nc1nnc(OCc2ccc(C#N)cn2)s1` [Example 219, N-(5-((5-cyanopyridin-2-yl)methoxy)-1,3,4-thiadiazol-2-yl)-4-(2-methoxyphenyl)-6-methylnicotinamide]: the pIC50 was at least 6.70.

As to `COc1ccccc1-c1cc(C)ncc1C(=O)Nc1nnc(OCc2ccc(C3(C#N)CC3)cn2)s1` [Example 220, N-(5-[[5-(1-cyanocyclopropyl)pyridin-2-yl]methoxy]-1,3,4-thiadiazol-2-yl)-4-(2-methoxyphenyl)-6-methylpyridine-3-carboxamide], the pIC50 was at least 6.70.

Turning to `COc1ccccc1-c1cc(C)ncc1C(=O)Nc1nnc(OCc2ccc(F)cn2)s1` [Example 221, N-[5-[(5-fluoropyridin-2-yl)methoxy]-1,3,4-thiadiazol-2-yl]-4-(2-methoxyphenyl)-6-methylpyridine-3-carboxamide], the pIC50 was at least 6.70.

Regarding `COc1cc(-c2ccccc2OC)c(C(=O)Nc2nnc(OCc3ccc(Cl)cn3)s2)cn1` [Example 222, N-(5-((5-chloropyridin-2-yl)methoxy)-1,3,4-thiadiazol-2-yl)-6-methoxy-4-(2-methoxyphenyl)nicotinamide], the pIC50 is at least 6.70.

In the case of `COc1ccccc1-c1cc2cnnn2cc1C(=O)Nc1nnc(OCc2ccc(Cl)cn2)s1` [Example 223, N-[5-[(5-chloropyridin-2-yl)methoxy]-1,3,4-thiadiazol-2-yl]-5-(2-methoxyphenyl)-[1,2,3]triazolo[1,5-a]pyridine-6-carboxamide], the pIC50 is at least 6.70.

For `COc1ccccc1-c1cc2cncn2cc1C(=O)Nc1nnc(OCc2ccc(Cl)cn2)s1` [Example 224, N-[5-[(5-chloropyridin-2-yl)methoxy]-1,3,4-thiadiazol-2-yl]-7-(2-methoxyphenyl)imidazo[1,5-a]pyridine-6-carboxamide], the pIC50 is at least 6.70.

(Values after patent US12509454B2, “Thiadiazolyl derivatives” (IDEAYA Biosciences, Inc., priority 2019, dated 2025).)
